Measured values published in patent US12018084B2, “Anti-CXCR2 antibodies and uses thereof” (Cephalon LLC, priority 2018, dated 2024).
One block for each compound: values may come before it.

What was measured:
[1] = biological target: T1, Human CXCR2 (Homo sapiens, UniProt P25025); assay: Calcium flux assay, HTS002C-CHEMISCREEN human CXCR2 calcium-optimized cell line; type: cell-based; details: for EC50: human agonist potency
T1 sequence (P25025 1-360): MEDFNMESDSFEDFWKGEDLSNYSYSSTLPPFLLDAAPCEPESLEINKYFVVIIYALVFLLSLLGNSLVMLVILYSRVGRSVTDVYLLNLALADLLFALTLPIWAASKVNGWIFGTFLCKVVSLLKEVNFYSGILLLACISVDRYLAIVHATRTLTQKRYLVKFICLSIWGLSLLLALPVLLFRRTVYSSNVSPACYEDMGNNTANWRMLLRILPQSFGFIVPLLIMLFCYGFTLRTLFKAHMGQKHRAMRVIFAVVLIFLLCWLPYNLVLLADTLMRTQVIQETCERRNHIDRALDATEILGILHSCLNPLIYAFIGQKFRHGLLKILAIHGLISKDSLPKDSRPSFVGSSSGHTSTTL
Description: One of the signaling pathways downstream of CXCR2 activation that has a role in cell chemotaxis is characterized by calcium mobilization (flux). The ability of BKO-4A8-101c to inhibit human CXCR2 ligand-induced calcium flux was tested in the commercially available HTS002C-CHEMISCREEN™ human CXCR2 chemokine receptor calcium-optimized cell line.
The Fluo-4 NW calcium assay kit (Life Technologies) was used according to manufacturer's protocol for in-cell measurement of calcium mobilization, which was read using a FLIPR Tetra high-throughput cellular screening system (Molecular Devices). The peak response minus the basal response from each well was used to determine inhibition dose response curves fitting a four-parameter logistic equation and IC50 values.

[2] = biological target: T1, Human CXCR2; assay: Tango CXCR2-bla U2OS cell-based β-arrestin recruitment assay; parameters: The beta-arrestin/TEV protease fusion and the beta-lactamase reporter are separate parts of the cell line; details: for EC50: human agonist potency
Source text: Cells were thawed, propagated, cultured and frozen according to the manufacturer's directions.
Preparation of Tango™ CXCR2-bla U2OS cells for use in cell-based assays: The manufacturer's protocol was altered to make use of 96-well plates instead of 384-well plates. Briefly, dividing cells were harvested one day prior to use. Cells were harvested and resuspended in assay medium (100% FreeStyle™ Expression Medium; Life Technologies; Cat #12338-018) at a viable cell density of 312,500 cells/mL. 128 μL of cell suspension was added per well in 96-well black-walled, clear bottom tissue culture-treated plates. Cells were incubated for 16-20 hrs at 37° C. in an atmosphere of 5% CO2 prior to use in assays.
Tango™ assay procedure: Assays were set up and run as described in the manufacturer's protocol. For antagonist assays, agonists were used at concentrations in the EC50-EC80 range. Assays were read using a FlexStation® 3 (Molecular Devices) fluorescence plate reader configured with the parameters given in Table 4. The blue/green emission ratio for each well was calculated by dividing the blue emission values by the green emission values. All inhibition curves were fitted using a four-parameter dose-response using GraphPad Prism™ (Version 7.01).
The Human CXCR2 Tango™ cell line was used to assess the ability of antibody BKO-4A8-101c to inhibit β-arrestin recruitment to agonist-activated CXCR2. All human ELR+ chemokine CXCR2 ligands were tested in antagonist dose response assays using calculated EC50 values of agonist.
The commercially available reporter cell line Tango™ CXCR2-bla U2OS (ThermoFisher Scientific) was used to assess the ability of the anti-CXCR2 antibodies to inhibit β-arrestin recruitment to agonist-activated CXCR2. Agonists were provided at their assay EC50 concentration for antagonist assays.

[3] = test system: neutrophil surface expression of CD11b; details: cited from earlier work
[4] = test system: COPD; details: in vivo; cited from earlier work
[5] = test system: mouse model of severe asthma; details: pre-treatment with 10 and 30 mg/kg; not significantly different from HDM-vehicle; cited from earlier work
[6] = biological target: T2, CXCR1 (Homo sapiens, UniProt P25024); details: selectivity versus CXCR2; cited from earlier work
T2 sequence (P25024 1-350): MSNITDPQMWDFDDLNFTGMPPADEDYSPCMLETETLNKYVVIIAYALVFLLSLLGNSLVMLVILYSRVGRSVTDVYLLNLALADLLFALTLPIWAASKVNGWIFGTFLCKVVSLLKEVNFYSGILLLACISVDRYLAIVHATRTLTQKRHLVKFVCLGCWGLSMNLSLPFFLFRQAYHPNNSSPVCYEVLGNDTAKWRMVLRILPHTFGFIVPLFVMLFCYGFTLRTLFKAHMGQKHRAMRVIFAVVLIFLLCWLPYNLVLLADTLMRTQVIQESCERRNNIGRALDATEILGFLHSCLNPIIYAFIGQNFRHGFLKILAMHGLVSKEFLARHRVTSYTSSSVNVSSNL

[7] = biological target: T3, CCR2b receptors (Homo sapiens, UniProt P41597); details: selectivity versus CXCR2; cited from earlier work
T3 sequence (P41597 1-360 isoform P41597-2): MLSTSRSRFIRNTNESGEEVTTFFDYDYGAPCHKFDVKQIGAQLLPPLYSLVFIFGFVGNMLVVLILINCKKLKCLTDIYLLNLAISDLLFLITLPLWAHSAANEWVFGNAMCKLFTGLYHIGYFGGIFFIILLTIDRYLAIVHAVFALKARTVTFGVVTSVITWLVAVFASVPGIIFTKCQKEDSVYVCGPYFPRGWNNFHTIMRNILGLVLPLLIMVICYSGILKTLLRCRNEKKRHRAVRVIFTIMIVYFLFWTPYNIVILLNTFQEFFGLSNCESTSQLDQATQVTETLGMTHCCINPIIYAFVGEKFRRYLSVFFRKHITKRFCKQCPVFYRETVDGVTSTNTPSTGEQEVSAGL

[8] = test system: CD11b expression; details: cited from earlier work

Compound: CXCL1: human agonist chemokine, Miltenyi Biotec 130-108-974 [reference compound]
EC50 [1]: 2.62 nM | EC50 [2]: 2.3 nM

Compound: Cc1c(F)cccc1NC(=O)Nc1ccc(Cl)c(S(=O)(=O)[C@H]2CCCNC2)c1O [Antagonist 5, Danirixin]
CXCL1 Maximal Inhibition % ([1]; CXCL1 at EC50): 95% | CXCL8 Maximal Inhibition % ([1]; CXCL8 at EC50): 97% | CD11b upregulation on neutrophils [3]: block CD11b upregulation | IC50, CXCL1-induced ex vivo neutrophil surface expression of CD11b [3]: 0.069 µg/mL | IC90, CXCL1-induced ex vivo neutrophil surface expression of CD11b ([3]; range 158-1080 ng/ml): 0.62 µg/mL | IC90 ([3]; range 356-2443 nM, read-out: IC90, CXCL1-induced ex vivo neutrophil surface expression of CD11b): 1400 nM | IC50 ([3]; read-out: IC50, CXCL1-induced ex vivo neutrophil surface expression of CD11b): 156 nM | primary end points in a Phase IIb trial for COPD [4]: failed to meet primary end points | CXCL1 Maximal Inhibition % ([2]; CXCL1 at EC50, comparison with comparators): 99% | CXCL5 Maximal Inhibition % ([2]; CXCL5 at EC50, comparison with comparators): 99% | CXCL8 Maximal Inhibition % ([2]; CXCL8 at EC50, comparison with comparators): 99%

Compound: CC[C@@H](Nc1c(Nc2cccc(C(=O)N(C)C)c2O)c(=O)c1=O)c1ccc(C)o1 [Antagonist 6, SCH 527123]
inhibition of neutrophil cell numbers in the BAL (maximum) [5]: ≤ 30%

Compound: CXCL5: human agonist chemokine, R&D Systems 254-XB [reference compound]
EC50 [1]: 39.2 nM | EC50 [2]: 97.7 nM

Compound: C[C@@H](Oc1cc(NS(=O)(=O)N2CCC2)nc(SCc2cccc(F)c2F)n1)[C@@H](O)CO [AZD5069]
fold less potent at CXCR1 [6]: > 150 fold | fold less potent at CCR2b receptors [7]: > 150 fold | effect on C5a, LTB4 or fMLP induced CD11b expression [8]: no effect

Compound: CXCL3: human agonist chemokine, R&D Systems 277-GG [reference compound]
EC50 [1]: 12.2 nM | EC50 [2]: 11.9 nM

The remaining lines, values ahead:

EC50 [1]: 3.2 nM
Compound: CXCL8: human agonist chemokine, Miltenyi Biotec 130-108-979 [reference compound]

EC50 [1]: 28.9 nM | EC50 [2]: 9.4 nM
Compound: CXCL6: human agonist chemokine, R&D Systems 333-GC [reference compound]

EC50 [1]: 37 nM | EC50 [2]: 33.3 nM
Compound: CXCL2: human agonist chemokine, R&D Systems 276-GB [reference compound]
